According to ChEMBL document CHEMBL4699594, “Antiplasmodial Alkaloids from the Australian Bryozoan Amathia lamourouxi” (J Nat Prod, 2020):
pIC50: −log10 of the molar value. The source made the active and inactive calls. The rule behind the calls is not given here.

What was measured:
[1] = Selectivity index, ratio of IC50 for cytotoxicity against human HEK293 cells to IC50 for antiplasmodial activity against chloroquine-sensitive Plasmodium falciparum 3D7 ring stage; format: toxicity, cell-based; conditions: read-out: Ratio IC50
HEK293 [2] = test: Cytotoxicity against human HEK293 cells assessed as reduction in cell viability after 72 hrs by resazurin dye based assay; conditions: HEK293, 72 h
Plasmodium falciparum [3] = test: Antiplasmodial activity against chloroquine-sensitive Plasmodium falciparum 3D7 ring stage incubated for 72 hrs by DAPI-staining based imaging analysis; format: functional, organism-based; conditions: 3D7, 72 h
HEK293 [4] = test: Cytotoxicity against human HEK293 cells assessed as reduction in cell viability at 0.1 uM after 72 hrs by resazurin dye based assay; conditions: hek293, 72 h
[5] = Selectivity index, ratio of IC50 for cytotoxicity against human HEK293 cells to IC50 for antiplasmodial activity against chloroquine-resistant Plasmodium falciparum Dd2 ring stage; format: toxicity, cell-based; conditions: read-out: Ratio IC50
Plasmodium falciparum [6] = test: Antiplasmodial activity against chloroquine-resistant Plasmodium falciparum Dd2 ring stage incubated for 72 hrs by DAPI-staining based imaging analysis; format: functional, organism-based; conditions: Dd2, 72 h
HEK293 [7] = test: Cytotoxicity against human HEK293 cells assessed as reduction in cell viability at 40 uM after 72 hrs by resazurin dye based assay; conditions: hek293, 72 h
Plasmodium falciparum [8] = test: Antiplasmodial activity against chloroquine-resistant Plasmodium falciparum Dd2 ring stage at 40 uM incubated for 72 hrs by DAPI-staining based imaging analysis; format: functional, organism-based
Plasmodium falciparum [9] = test: Antiplasmodial activity against chloroquine-sensitive Plasmodium falciparum 3D7 ring stage at 40 uM incubated for 72 hrs by DAPI-staining based imaging analysis; format: functional, organism-based
HEK293 [10] = test: Cytotoxicity against human HEK293 cells assessed as reduction in cell viability at 4 uM after 72 hrs by resazurin dye based assay relative to control; conditions: hek293, 72 h

COc1cc(CCN(C)CCCN(C)C)c(Br)cc1Br
selectivity ratio [1]: 10
pIC50 (HEK293 [2]): 4.77
pIC50 (Plasmodium falciparum [3]): 5.77

C[C@H]1[C@@H](O)O[C@@H]2O[C@@]3(C)CC[C@H]4[C@H](C)CC[C@@H]1[C@@]24OO3 [ARTENIMOL]
Activity (HEK293 [4]): Non-Toxic
selectivity ratio [1]: 62
pIC50 (Plasmodium falciparum [3]): 8.70
selectivity ratio [5]: 57

CN[C@@H](CCN(C)CCc1cc(OC)c(Br)cc1Br)C(=O)N(C)CCCN(C)CCc1cc(OC)c(Br)cc1Br
pIC50 (Plasmodium falciparum [6]): 6.07
selectivity ratio [1]: 20
pIC50 (HEK293 [2]): 4.96
pIC50 (Plasmodium falciparum [3]): 6.24
selectivity ratio [5]: 13

COc1ccc(C[C@H](N)C(=O)N[C@H]2[C@@H](O)[C@H](n3cnc4c(N(C)C)ncnc43)O[C@@H]2CO)cc1 [PUROMYCIN]
pIC50 (Plasmodium falciparum [6]): 7.17
selectivity ratio [1]: 353
pIC50 (HEK293 [2]): 6.09
selectivity ratio [5]: 585

Cn1c(Br)c(C=O)c2cc(Br)ccc21
Activity (HEK293 [7]): Non-Toxic
Activity (Plasmodium falciparum [8]): inactive
Activity (Plasmodium falciparum [9]): inactive

CCN(CC)CCCC(C)Nc1ccnc2cc(Cl)ccc12 (stereo not drawn) [CHLOROQUINE]
Activity (HEK293 [10]): 67%

CNCCc1cc(OC)c(Br)cc1Br.O=C(O)C(F)(F)F
Activity (HEK293 [7]): Non-Toxic
selectivity ratio [1]: 4
pIC50 (Plasmodium falciparum [3]): 4.96

COc1cc(CCN(C)CCCN(C)C(=O)[C@H](CCN(C)CCc2cc(OC)c(Br)cc2Br)N(C)C)c(Br)cc1Br
Activity (HEK293 [7]): Non-Toxic
pIC50 (Plasmodium falciparum [6]): 6.12
selectivity ratio [1]: 66
pIC50 (Plasmodium falciparum [3]): 6.21
selectivity ratio [5]: 53

CN[C@@H](CCN(C)CCc1cc(OC)c(Br)cc1Br)C(=O)NCCCN(C)CCc1cc(OC)c(Br)cc1Br
Activity (HEK293 [7]): Non-Toxic
pIC50 (Plasmodium falciparum [6]): 5.72
selectivity ratio [1]: 25
pIC50 (Plasmodium falciparum [3]): 5.80
selectivity ratio [5]: 21
